Measurements as given in patent publication US20130136778A1, “PTEROSTILBENE (PTER) FOR USE IN THE PREVENTION AND/OR TREATMENT OF SKIN DISEASES, DAMAGES OR INJURIES” (GREEN MOLECULAR, S.L., priority 2009, published 2013).

Experiments:
[1] = Asensi et al. 2002; cited from earlier work
SKH-1 mice [2] = test: Skinfold thickness (edema) after acute UV-B exposure of 360 mJ/cm2; type: in vivo; settings: FIG. 1
Method: UVB Acute exposure protocols were used: Mice underwent a single exposure of 360 mJ/cm2. The study was conducted at 24 hours after exposure. This protocol was used to evaluate the photoprotective effect of the compounds studied. With the same acute-phase protocol mice from all groups were irradiated. Subsequently mice remained in the animal storage area for a week to see the evolution of the inflammatory response and edema. For the UVB exposure studies (chronic or acute) a topical administration to the back of the mouse was conducted. The commercial sunscreens were applied directly on the mouse. The polyphenols in the study were administered in a liposomal preparation diluted 1:1 with Carbopol polymer which will be the vehicle for these liposomes. Each polyphenol dose administered was 10 μmol/mouse, as free acid. • 1. Edema formation: skinfold thickness was determined with a caliper 24 hours after the first exposure. • 2. Study of the thickness of the epidermis after exposure to acute irradiation (360 mj/cm^2 24 h hours and 7 days after irradiation). • 3. Histological studies: measuring, in the pictures obtained from histological sections, the thickness of the epidermis. With the purpose of assessing the effects of the photoprotective compounds studied, female mice SKH-1 of between 6-8 weeks old were subjected to a single exposure of 360 mJ/cm. For the ultraviolet B (UVB) irradiation exposure, a camera specifically prepared, available at our laboratory was used (Crosslinker; Bio-Link BLX 254) equipped with 5 tubes that produce 80% of the UVB radiation, with a maximum emission of 312 nm. The two protocols of UV-B exposure used were: • Intense exposure after a single exposure of 360 mJ/cm^2. The study was carried out 24 hours after the exposure. This protocol was used to assess the photoprotective effects of the compounds studied. • Intense exposure after a single exposure of 360 mJ/cm^2. The study was carried out 1 week after the exposure. The mice were kept in the shed for a week to observe the evolution of the inflammatory and edematous response. As reference, several commercial photoprotective products were used ([…] Heliocare). The reference compounds as well as the products object of this study, were applied on the back of the mice for 20 minutes after or 20 minutes before the irradiation with UV-B, to determine if the reaction observed was due to an effect of the solar filter or not. […] The skinfold was measured by making a fold on the skin from the back of the mice, from the axillae to the hips; the fold was measured with a vernier caliper. The increase in the fold was calculated by the difference between the initial point, before the effects of the reaction, and the thickness in each point.

SKH-1 mice [3] = test: Experimental psoriasis induced by TPA; type: in vivo
Method: For the induction of psoriasis, the agent “12-O-tetradecanoylphorbol-13 acetate” (TPA) was used.
Since our objective was to assess the progress of the lesions caused by psoriasis in combination with the use of polyphenols, a model of continuous exposure and a weaker concentration of TPA were used, on a daily dose of 2 nmoles of TPA over a period of a week, which allowed us to observe the progress of the psoriasis.
The induction was performed with 2 nmol TPA/mouse on an area of 1 cm^2, applying 10 μL of the 200 μM solution in acetone. This application protocol was carried out taking into account that when applying 20 μL as stated in the model, the volume increased considerably and it lost its concentration, therefore it was decided to make it more concentrated.
As a standard treatment, Dexamethasone was used, (from Sigma Solution 25 mM in acetone). The administration of the standard treatment and the products to be tested were given 30 minutes prior to the application of TPA, both beginning on the same day.
The groups, of 6 mice, for this assessment were: • Not treated. • Reference compound: 0.5 μmoles of Dexamethasone (200 μL of one solution 25 mM in acetone). • Medium: 200 μl of vacuumed Liposomes. • Resveratrol: 200 μL of Resveratrol Liposomes (10 μmol in total). • PTER: 200 μL of PTER Liposomes (10 μmol in total). • QUER: 200 μL of QUER Liposomes (10 μmol in total). • PTER+QUER:: 200 μL of PTER Liposomes+QUER (10 μmol in total).
At 24 hours (day 7) after the last administration of the different treatments and TPA, 3 mice from each group were sacrificed and their skin fixed with 4% PFA. The remaining mice were kept under the treatment with no exposure to TPA, to verify if the skin recovered faster on the treatment than on its own. At 24 hours (day 9) after the last administration of the different treatments the rest of the mice were sacrificed and their skin fixed with 4% PFA.
The flaky aspect of the skin was quantified in a scale of 0-3, being 0, nothing; 1, mild; 2, moderate; 3, severe.

SKH-1 mice [4] = test: Thickness of the epidermis after acute UV-B exposure of 360 mJ/cm2; type: in vivo; settings: FIG. 2, versus group treated only with UV-B
Method: UVB Acute exposure protocols were used: Mice underwent a single exposure of 360 mJ/cm2. The study was conducted at 24 hours after exposure. This protocol was used to evaluate the photoprotective effect of the compounds studied. With the same acute-phase protocol mice from all groups were irradiated. Subsequently mice remained in the animal storage area for a week to see the evolution of the inflammatory response and edema. • 1. Edema formation: skinfold thickness was determined with a caliper 24 hours after the first exposure. • 2. Study of the thickness of the epidermis after exposure to acute irradiation (360 mj/cm^2 24 h hours and 7 days after irradiation). • 3. Histological studies: measuring, in the pictures obtained from histological sections, the thickness of the epidermis. For studies of acute exposure skin samples were taken from the back of the mouse. These samples were fixed with 4% paraformaldehyde (24 hours) and embedded in paraffin. Following cutting the samples were stained with hematoxylin and eosin. The two protocols of UV-B exposure used were: • Intense exposure after a single exposure of 360 mJ/cm^2. The study was carried out 24 hours after the exposure. This protocol was used to assess the photoprotective effects of the compounds studied. • Intense exposure after a single exposure of 360 mJ/cm^2. The study was carried out 1 week after the exposure. The mice were kept in the shed for a week to observe the evolution of the inflammatory and edematous response. At 24 hours or 1 week after the administration of the different treatments the mice were sacrificed and their skin fixed with 4% PFA. To measure the thickness of the epidermis to evaluate possible hyperplasia, a computer program was used, Image J, calibrated with the assistance of a Neubauer camera which allowed the measuring of the epidermis. Results obtained were statistically analyzed by ANOVA and contrasted by the Tukey test and grouped according to the significant differences. […] Therefore PTER alone could be used efficiently in the prevention of skin diseases, injuries or damages induced by ultraviolet B radiation. The evaluation of skin thickness was carried out by using computer software (IMAGE J). Results obtained by ANOVA were contrasted by the Tukey test and grouped according to the significant differences. […] Therefore PTER separately could be used efficiently in the prevention of skin diseases, damages or injuries induced by ultraviolet B radiation.

SKH-1 mice [5] = test: Anatomopathological study of the skin after chronic exposure to UV-B; type: in vivo; set-up: key to Stroma: Parakeratosis: (+) light; (+++) serious; settings: after 30 weeks chronic UV-B 180 mJ/cm2
Method: Histochemical techniques were used to study the skin tissues of the different procedures, at a microscopic level.
The tissues were fixed in 4% formaldehyde in PBS over 24 h at 22° C. After the tissues were fixed, they had to be dehydrated in large amounts of ethanol and placed in a hydrophobic and xylene mixture to allow the paraffin to penetrate the tissues to provide sufficient consistency for slicing them thinly in a microtome.
The samples in paraffin were processed with the microtome obtaining slices of about 5-10 μm. The samples were spread over a drop of gelatin at 37° C. and were collected in gelatinized slides.
The protocol used for staining the samples was: • 1. Incubation with Mayer's Hematoxylin for 10-15 minutes. • 2. Wash under running water until bluish. • 3. Incubate with Eosin (1%) for 2-4 minutes. • 4. Eliminate the remaining eosin in ethanol 70° • 5. Dehydration. • 6. Rinse with xylol for 3 minutes. • 7. Let the trays dry out on the stove at 37°.
In relation to the histopathological exam of the tumors induced by chronic irradiation to UV in the SKH1 mice, it was confirmed that the treatment with UV-B produced a strong acanthosis due primarily to the inflammatory process; this gave way to the first signs of tumors, mostly of carcinoma type and not melanoma.
Both the reference compounds and the ones subject of this study (10 μmoles/mouse of polyphenols, or 200 μl of each photoprotector) were applied to the back of the mice for 20 minutes prior to their exposure to UV-B. Medium of groups of 20 mice. Every parameter was measured according to the degree of seriousness (+) light-(+++) serious.

[6] = Absorption spectrum of polyphenols (mechanical filter capacity); type: physicochemical; settings: 1 mM in pure ethanol, 200-800 nm
Method: A solution of 1 mM of each polyphenol was prepared (PTER, Resveratrol and QUER) in absolute ethanol (HPLS quality; Quima) and the absorption spectrum was studied between 200 and 800 nm using a Multiskan Spectrum (ThermoScientific).
With the purpose of studying the capacity of the polyphenols used in this study, we decided to evaluate the absorption of light throughout the ultraviolet light spectrum as shown in FIG. 13.

mice = test: Skinfold after continuous administration of treatments (side effects on skin); type: in vivo; settings: daily for 6 consecutive days; 10 μmoles/mouse polyphenols, 0.5 μmoles/mouse dexamethasone
Method: FIG. 17. […] The application of the treatments 10 μmoles/mouse of polyphenols and 0.5 μmoles/mouse of dexamethasone was performed daily on a third of the back of the mice for 6 consecutive days. The skinfold was measured with the help of a vernier caliper.*p>0.001 with regards to the control. ANOVA followed by a Tukey test.
Prior to evaluating the results of different treatments on different models of dermatitis, the possible side effects of continues administration of polyphenols on the skin of the mice had to be evaluated as shown in FIG. 17. For this purpose, the dose for this daily evaluation was administered over 6 consecutive days.

Oc1ccc(/C=C/c2cc(O)cc(O)c2)cc1 [RESV, 3,4′,5-trihydroxy-trans-stilbene, reference compound]
bioavailability [1]: low bioavailability | formation of the edema (thickness of the skin) after severe UV-B exposure (SKH-1 mice [2]): the formation of the edema was reduced | increase of skinfold throughout the procedure (SKH-1 mice [3]; FIG. 23, 6 consecutive days, treatment 30 min prior to 2 nmol TPA): the evolution was similar with an increase in the formation of edema | increase in the skinfold 24 hours after the first administration of TPA (SKH-1 mice [3]; FIG. 24, treatment 30 min prior to 2 nmol TPA): did not produce any effect on the increase of the skinfold in comparison to the TPA group | histological analysis of the lesions (SKH-1 mice [3]; FIG. 28, hematoxylin-eosin, TPA daily over 7 days): resembles more the group treated with TPA, than the group with PTER | thickness of the epidermis 24 hours after irradiation (before or after application) (SKH-1 mice [4]): good photoprotection role but not as a repairer | Tumor (no/mouse × group) (SKH-1 mice [5]; Table 4, applied 20 min prior): 3.8 | Stroma: Parakeratosis (SKH-1 mice [5]; degree of seriousness): + | absorption of light, range of maximum absorption [6]: peaks or maximum absorption in the range of Ultraviolet B

C[C@@H]1C[C@H]2[C@@H]3CCC4=CC(=O)C=C[C@]4(C)[C@@]3(F)[C@@H](O)C[C@]2(C)[C@@]1(O)C(=O)CO [dexamethasone]
skinfold / structure of the skin after continuous administration (mice): did have side effects on the structure of the skin
